Experimental findings from patent US11744824B2, “2-amino-3-carbonyl imidazopyridine and pyrazolopyridine compounds” (1ST Biotherapeutics, Inc., priority 2020, dated 2023) are described below.

The assay concerns the target GST-tagged recombinant human RIP2 (Homo sapiens (Human), UniProt O43353). Kind of assay: RIP2 Kinase Assay (ADP-Glo). In kind it is biochemical. The note with it: in vitro kinase activity, ATP 25 μM. The procedure: GST-tagged recombinant human RIP2 (25 ng) is incubated with 5 μL of compounds (0.5% DMSO), 5 μL of MBP (0.5 μg/μl) and 5 μL of ATP (25 μM) in buffer (40 mM Tris, 7.5; 20 mM MgCl2; 0.1 mg/ml BSA; 50 μM DTT). The assay was started by incubating the reaction mixture in a 96-well plate at 30° C. for 60 minutes. After the incubation, 25 μL ADP-Glo reagent was added, and the reaction was incubated at 30° C. for 40 minutes to stop the reaction and degrade residual ATP. The ADP product was then converted to ATP by adding 50 μL per well of detection reagent. Luminescence was detected after 30 minutes room temperature incubation with the Molecular device I3X plate reader. The IC50 values were calculated from a series of percent inhibition values determined at a range of inhibitor concentration using software routines as implemented in the GraphPad Prism 7 software and SigmaPlot 13.0.
On the technique in general: In ADP-Glo the light output rises with the ADP produced.

Molecules are shown by their SMILES.

Sequence of GST-tagged recombinant human RIP2 (O43353 whole entry): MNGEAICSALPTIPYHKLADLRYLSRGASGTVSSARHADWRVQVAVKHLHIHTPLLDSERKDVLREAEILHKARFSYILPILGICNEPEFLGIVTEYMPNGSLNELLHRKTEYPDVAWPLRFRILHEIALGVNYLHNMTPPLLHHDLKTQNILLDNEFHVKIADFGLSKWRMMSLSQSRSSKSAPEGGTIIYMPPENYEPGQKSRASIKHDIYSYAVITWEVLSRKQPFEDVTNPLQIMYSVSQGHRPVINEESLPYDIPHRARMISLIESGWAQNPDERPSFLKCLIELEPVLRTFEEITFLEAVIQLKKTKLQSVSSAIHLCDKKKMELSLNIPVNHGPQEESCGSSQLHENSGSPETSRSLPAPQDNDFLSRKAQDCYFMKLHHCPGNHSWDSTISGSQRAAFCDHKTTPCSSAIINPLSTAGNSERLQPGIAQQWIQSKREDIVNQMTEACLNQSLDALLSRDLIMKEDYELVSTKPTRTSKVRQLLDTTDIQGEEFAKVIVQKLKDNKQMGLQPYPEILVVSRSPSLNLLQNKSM

For orientation: IC50 means the concentration at which inhibition is half-maximal. On to `Nc1nc2ccc(Br)cn2c1C(=O)C1CC1` [Example 1, (2-amino-6-bromoimidazo[1,2-a]pyridin-3-yl)(cyclopropyl)methanone], for which the IC50 was greater than 1000 nM.

For `Cc1ccncc1-c1ccc2nc(N)c(C(=O)C3CC3)n2c1` [Example 2], the IC50 is 101 to 500 nM.

Turning to `Nc1nc2ccc(Br)cn2c1C(=O)[C@@H]1C[C@@H]1F` [Example 4], the IC50 was greater than 1000 nM.

As for `CC(=O)c1c(N)nc2ccc(-c3cccc(F)c3C)cn12` [Example 6, 1-(2-amino-6-(3-fluoro-2-methylphenyl)imidazo[1,2-a]pyridin-3-yl)ethan-1-one], the IC50 lay in the range of 101 to 500 nM.

Consider `Cc1cc(F)ccc1-c1ccc2nc(N)c(C(=O)[C@@H]3C[C@@H]3F)n2c1` [Example 7], for which the IC50 is 101 to 500 nM.

As for `Nc1nc2ccc(-c3cccs3)cn2c1C(=O)[C@@H]1C[C@@H]1F` [Example 8], the IC50 is 101 to 500 nM.

`Nc1nc2ccc(-c3cccc(F)c3C(F)(F)F)cn2c1C(=O)[C@@H]1C[C@@H]1F` [Example 10]: the IC50 was greater than 1000 nM.

As for `Cc1cccc(-c2ccc3nc(N)c(C(=O)[C@@H]4C[C@@H]4F)n3c2)c1C` [Example 11], the IC50 was 1 to 100 nM.

As for `Cc1c(F)cccc1-c1ccc2nc(N)c(C(=O)c3ccccn3)n2c1` [Example 12], the IC50 was in the range of 1 to 100 nM.

With `Cc1c(F)cccc1-c1ccc2nc(N)c(C(=O)c3ccccc3)n2c1` [Example 13], the IC50 is 101 to 500 nM.

With `Cc1c(F)cccc1-c1ccc2nc(N)c(C(=O)C3CC3)n2c1` [Example 14], the IC50 was 1 to 100 nM.

Consider `Cc1ccc(F)cc1-c1ccc2nc(N)c(C(=O)[C@@H]3C[C@@H]3F)n2c1` [Example 15], for which the IC50 was 1 to 100 nM.

As to `Cc1ccc(C)c(-c2ccc3nc(N)c(C(=O)[C@@H]4C[C@@H]4F)n3c2)c1` [Example 16], the IC50 was 101 to 500 nM.

Regarding `Cc1ccc(-c2ccc3nc(N)c(C(=O)[C@@H]4C[C@@H]4F)n3c2)c(C)c1` [Example 17], the IC50 was 101 to 500 nM.

Consider `Cc1cccc(F)c1-c1ccc2nc(N)c(C(=O)[C@@H]3C[C@@H]3F)n2c1` [Example 18], for which the IC50 is 101 to 500 nM.

Turning to `Cc1c(-c2ccc3nc(N)c(C(=O)[C@@H]4C[C@@H]4F)n3c2)cccc1C(F)(F)F` [Example 19], the IC50 was in the range of 101 to 500 nM.

Take `Cc1c(F)cccc1-c1ccc2nc(N)c(C(=O)C3CCC3)n2c1` [Example 20]: the IC50 was in the range of 101 to 500 nM.

Turning to `Cc1c(F)cccc1-c1ccc2nc(N)c(C(=O)c3cnn(C)c3)n2c1` [Example 21], the IC50 fell in the range of 101 to 500 nM.

`Cc1c(F)cccc1-c1ccc2nc(N)c(C(=O)C(C)(C)C)n2c1` [Example 22]: the IC50 was 101 to 500 nM.

Turning to `CCCCC(=O)c1c(N)nc2ccc(-c3cccc(F)c3C)cn12` [Example 23], the IC50 lay within 501 to 1000 nM.

In the case of `Cc1c(F)cccc1-c1ccc2nc(NCCN(C)C)c(C(=O)[C@@H]3C[C@@H]3F)n2c1` [Example 24, (2-((2-(dimethylamino)ethyl)amino)-6-(3-fluoro-2-methylphenyl)imidazo[1,2-a]pyridin-3-yl)((1S,2S)-2-fluorocyclopropyl)methanone], the IC50 is greater than 1000 nM.

In the case of `Cc1cc(F)ccc1-c1ccc2nc(N)c(C(=O)[C@H]3C[C@@H]3F)n2c1` [Example 25], the IC50 lay within 101 to 500 nM.

Turning to `Cc1cccc(F)c1-c1ccc2nc(N)c(C(=O)[C@H]3C[C@@H]3F)n2c1` [Example 26], the IC50 lay within 101 to 500 nM.

Turning to `Nc1nc2ccc(-c3ccco3)cn2c1C(=O)[C@@H]1C[C@@H]1F` [Example 27], the IC50 is greater than 1000 nM.

As for `Cc1scnc1-c1ccc2nc(N)c(C(=O)[C@@H]3C[C@@H]3F)n2c1` [Example 28, (2-amino-6-(5-methylthiazol-4-yl)imidazo[1,2-a]pyridin-3-yl)((1S,2S)-2-fluorocyclopropyl)methanone], the IC50 fell in the range of 101 to 500 nM.

`Cc1ccsc1-c1ccc2nc(N)c(C(=O)[C@@H]3C[C@@H]3F)n2c1` [Example 29]: the IC50 is 101 to 500 nM.

For the compound `Nc1nc2ccc(-c3cncs3)cn2c1C(=O)[C@@H]1C[C@@H]1F` [Example 30], the IC50 was greater than 1000 nM.

For the compound `Cc1c(-c2ccc3nc(N)c(C(=O)[C@@H]4C[C@@H]4F)n3c2)ccc(F)c1F` [Example 31], the IC50 was in the range of 101 to 500 nM.

As to `CC(=O)Nc1nc2ccc(-c3cccc(F)c3C)cn2c1C(C)=O` [Example 33, N-(3-acetyl-6-(3-fluoro-2-methylphenyl)imidazo[1,2-a]pyridin-2-yl)acetamide], the IC50 was greater than 1000 nM.

Take `Nc1nc2ccc(-c3ccccc3Cl)cn2c1C(=O)[C@@H]1C[C@@H]1F` [Example 34]: the IC50 fell in the range of 101 to 500 nM.

Regarding `Cc1c(F)cccc1-c1ccc2nc(N)c(C(=O)[C@H]3C[C@H]3F)n2c1` [Example 35], the IC50 was in the range of 101 to 500 nM.

As for `Cc1c(F)cccc1-c1ccc2nc(N)c(C(=O)C3CCN3C(=O)OC(C)(C)C)n2c1` (centres unmarked) [Example 36], the IC50 is greater than 1000 nM.

For the compound `CC(=O)c1c(N(C(C)=O)C(C)=O)nc2ccc(-c3cccc(F)c3C)cn12` [Example 37, N-acetyl-N-(3-acetyl-6-(3-fluoro-2-methylphenyl)imidazo[1,2-a]pyridin-2-yl)acetamide], the half-inhibitory concentration (IC50) is greater than 1000 nM.

Take `CC(=O)c1ccc(-c2ccc3nc(N)c(C(=O)[C@@H]4C[C@@H]4F)n3c2)c(C)c1` [Example 38]: the IC50 was greater than 1000 nM.

As to `Nc1nc2ccc(-c3ccc(N4CCOCC4)cc3)cn2c1C(=O)[C@@H]1C[C@@H]1F` [Example 39], the IC50 is greater than 1000 nM.

For `Cc1c(F)cccc1-c1ccc2nc(N)c(C(=O)[C@@H]3C[C@H]3F)n2c1` [Example 42], the IC50 fell in the range of 101 to 500 nM.

Consider `Cc1c(F)cccc1-c1ccc2nc(N)c(C(=O)[C@H]3C[C@@H]3F)n2c1` [Example 43], for which the IC50 lay within 101 to 500 nM.

`Cc1ccc(C(F)(F)F)cc1-c1ccc2nc(N)c(C(=O)[C@@H]3C[C@@H]3F)n2c1` [Example 45]: the IC50 was 101 to 500 nM.

As to `Cc1c(F)cccc1-c1ccc2nc(N)c(C(=O)C3CC(F)(F)C3)n2c1` [Example 46], the half-maximal inhibitory concentration (IC50) was 501 to 1000 nM.

With `Cc1c(F)cccc1-c1ccc2nc(N)c(C(=O)[C@@H]3CC3(F)F)n2c1` [Example 47], the IC50 was 101 to 500 nM.

Regarding `Cc1c(F)cccc1-c1ccc2nc(N)c(C(=O)C3CCN3)n2c1` (centres unmarked) [Example 48], the IC50 was 101 to 500 nM.

On to `Cc1c(F)cccc1-c1ccc2nc(N)c(C(=O)C3CN(C(=O)OC(C)(C)C)C3)n2c1` [Example 49], for which the IC50 was greater than 1000 nM.

`Cc1c(F)cccc1-c1ccc2nc(N)c(C(=O)C3CNC3)n2c1` [Example 50]: the IC50 lay within 1 to 100 nM.

In the case of `Nc1nc2ccc(-c3ccc(N4CCNCC4)cc3)cn2c1C(=O)[C@@H]1C[C@@H]1F` [Example 52], the IC50 was 501 to 1000 nM.

In the case of `CN1CCN(c2ccc(-c3ccc4nc(N)c(C(=O)[C@@H]5C[C@@H]5F)n4c3)cc2)CC1` [Example 53], the IC50 lay within 101 to 500 nM.

For `CNc1nc2ccc(-c3cccc(F)c3C)cn2c1C(=O)[C@@H]1C[C@@H]1F` [Example 54, (6-(3-fluoro-2-methylphenyl)-2-(methylamino)imidazo[1,2-a]pyridin-3-yl)((1S,2S)-2-fluorocyclopropyl)methanone], the IC50 was greater than 1000 nM.

For `Cc1c(F)cccc1-c1ccc2nc(N(C)C)c(C(=O)[C@H]3C[C@@H]3F)n2c1` [Example 55, (2-(dimethylamino)-6-(3-fluoro-2-methylphenyl)imidazo[1,2-a]pyridin-3-yl)((1R,2S)-2-fluorocyclopropyl)methanone], the IC50 is greater than 1000 nM.
